Laboratory results reported in US9580426B2, “Compounds that expand hematopoietic stem cells” (Novartis AG, priority 2008, dated 2017).

What follows are compounds tested on Primary adult CD34+ human hematopoietic stem cells (HSCs) (assay: % CD34+ assay: HSC expansion screen, dose response). Conditions: Homo sapiens, Hematopoietic stem cell; dose response 1 nM to 10 μM; total number and/or percent of CD34+ cells.
Format: cell-based
Protocol: Primary adult CD34^+ human hematopoietic stem cells (HSCs) are cultured and screened to identify compounds of the invention that facilitate HSC expansion. The cells are analyzed for the presence of the desired phenotype (CD34 expression). Compounds of the invention promote HSC expansion in a dose dependent manner.
Culture Medium: StemSpan SFEM medium is serum-free medium (StemCell Technologies, Vancouver, BC) supplemented with the following human recombinant cytokines: thrombopoietin, interleukin-6, Flt-3 ligand, and stem cell factor (all from R&D Systems, Minneapolis, Minn.), each at a final concentration of 50 ng/mL, with vehicle (DMSO) or a compound of the invention.
Human Cell Culture: Fresh human leukophoresed G-CSF mobilized peripheral blood from normal donors, CD34^+ cells from adult bone marrow and cryopreserved human cord blood CD34^+ cells are purchased from AllCells (Berkeley, Calif.). Human CD34^+ cells are enriched from leukophoresed G-CSF mobilized peripheral blood using magnetic cell sorting (MACS, Direct CD34 Progenitor Cell Isolation Kit, Miltenyi Biotec, Bergisch Gladbach, Germany) and cryopreserved. CD34^+ cell purity, checked by flow Cytometry, is higher than 90%. After thawing, the cell viability tested by trypan blue exclusion is higher than 70%. The thawed cells are centrifuged and resuspended with StemSpan medium before being aliquoted for immediate culture. Cells are plated at 10^4 cells/mL in a 384 well plate (Greiner Bio-One, Monroe, N.C.) with 50 μL of medium per well for 7 days. Every 7 days the cells are transferred to larger well plates and fresh medium is added to keep the cell density between 10^4 and 5×10^5 cells/mL. Cells were cultured at 37° C. in 5% CO2. For transplantation, cells were cultured in 75 cm^2 flasks before the cells were transplanted into mice. At a concentration of 1 micromolar, 4-(2-(2-(benzo[b]thiophen-3-yl)-9-isopropyl-9H-purin-6-ylamino)ethyl)phenol (compound 1, table 1; example 1), 4-(2-(2-(benzo[b]thiophen-3-yl)-9-sec-butyl-9H-purin-6-ylamino)ethyl)phenol (compound 2, table 1), and N-(2-(1H-indol-3-yl)ethyl)-2-(benzo[b]thiophen-3-yl)-9-isopropyl-9H-purin-6-amine (compound 9, table 1) each gives rise to a greater than 10-fold increase in the number of CD34^+ CD45RA^− cells derived from 1000 mPB CD34^+ HSCs after 21 days compared to vehicle. Compounds of the invention were assayed in a dose response format (1 nM to 10 μM) to determine the effective concentration that produced the desired effect in 50% of the cells (EC50).

EC50 [nM] | SMILES
5750 | CC(C)n1cnc2c(NCCc3ccc(N)cc3)nc(-c3csc4ccccc34)nc21 [Example 13]
1100 | CC(C)n1cnc2c(NCCc3ccc(OS(N)(=O)=O)cc3)nc(-c3cccnc3)nc21 [Example 114]
1760 | CC(C)n1cnc2c(NCCc3ccc(F)cc3)nc(-c3csc4ccccc34)nc21 [Example 12]
91 | CC(C)n1cnc2c(NCCc3ccc(O)cc3)nc(-c3cnccc3C#N)nc21 [Example 140]
1100 | CC(C)n1ccc2c(NCCc3ccc(O)cc3)nc(-c3csc4ccccc34)nc21 [Example 198]
86 | CC(C)n1cnc2c(NCCc3ccc(O)cc3)nc(-n3cnc4ccccc43)nc21 [Example 121]
2500 | CCCc1nccn1-c1nc(NCCc2ccc(O)cc2)c2ncn(C(C)C)c2n1 [Example 181]
160 | Cc1ccc(-c2nc(NCCc3ccc(O)cc3)c3ncn(C(C)C)c3n2)cn1 [Example 144]
520 | CC(C)n1cnc2c(NCCc3c[nH]c4ccc(F)cc34)nc(-c3cccnc3)nc21 [Example 149]
1400 | CC(C)n1cnc2c(NCCc3ccc(O)cc3)nc(-c3cncs3)nc21 [Example 120]
3 | CC[C@@H](C)n1cnc2c(NCCc3c[nH]c4ccccc34)nc(-c3cncc(C)c3)nc21 [Example 131R]
240 | Cc1cscc1-c1nc(NCCc2ccc(O)cc2)c2ncn(C(C)C)c2n1 [Example 58]
720 | Cc1ccc2[nH]cc(CCNc3nc(-c4cccnc4)nc4c3ncn4C(C)C)c2c1 [Example 62]
150 | Oc1ccc(CCNc2nc(-c3csc4ccccc34)nc3c2ncn3C(c2ccccc2)c2ccccc2)cc1 [Example 3]
7200 | Cn1cnc2c(NCCc3ccc(O)cc3)nc(-c3csc4ccccc34)nc21 [Example 7]
190 | CC(C)n1cnc2c(NCCc3ccc(O)cc3)nc(-c3cccnc3)nc21 [Example 15]
2700 | CC(C)n1cnc2c(NCCN3CCNC3=O)nc(-c3cccnc3)nc21 [Example 70]
7500 | CC(C)n1cnc2c(NCCc3cccnc3)nc(-c3cncc(F)c3)nc21 [Example 166]
140 | Cc1ncn(-c2nc(NCCc3ccc(O)cc3)c3ncn(C(C)C)c3n2)c1C [Example 162]
6000 | Cc1n[nH]c(SCCNc2nc(-c3cccnc3)nc3c2ncn3C(C)C)n1 [Example 76]
2530 | CC(C)Cn1cnc2c(NCCc3ccc(O)cc3)nc(-c3csc4ccccc34)nc21 [Example 6]
1100 | Oc1ccc(CCNc2nc(-c3cccnc3)nc3c2ncn3[C@H]2CCOC2)cc1 [Example 93S]
260 | CC(C)n1cnc2c(NCCc3ccc(O)cc3)nc(-n3ccnc3)nc21 [Example 40]
1300 | CC(C)n1cnc2c(NCCc3ccc(O)cc3)nc(-c3ccc(C#N)nc3)nc21 [Example 139]
7100 | CC(C)n1cnc2c(NCCNc3ccccn3)nc(-c3csc4ccccc34)nc21 [Example 83]
19 | CC(C)n1cnc2c(NCCc3ccc(O)cc3)nc(-c3cncc(Cl)c3)nc21 [Example 128, 4-(2-(2-(5-Chloropyridin-3-yl)-9-isopropyl-9H-purin-6-ylamino)ethyl)phenol]
8200 | CC(C)n1cnc2c(NCCc3n[nH]c4ccccc34)nc(-c3cccnc3)nc21 [Example 98]

Continued, compound first:

SMILES | EC50 [nM]
CC(C)n1cnc2c(NCCc3ccc(O)cc3)nc(-c3cncnc3)nc21 [Example 14] | 170
Fc1cncc(-c2nc(NCCc3c[nH]c4ccccc34)c3ncn([C@@H]4CCOC4)c3n2)c1 [Example 158] | 12
CC(C)n1cnc2c(NCCc3c[nH]c4c(F)cccc34)nc(-c3cncc(F)c3)nc21 [Example 196] | 2
CC(C)n1cnc2c(NCCc3c[nH]c4cc(F)ccc34)nc(-c3cncc(F)c3)nc21 [Example 188] | 5
Oc1ccc(CCNc2nc(-c3csc4ccccc34)nc3c2ncn3Cc2ccc(C(F)(F)F)cc2)cc1 [Example 5] | 2080
CC(CO)n1cnc2c(NCCc3c[nH]c4ccccc34)nc(-c3cncc(F)c3)nc21 (stereo not shown) [Example 157, 2-(6-(2-(1H-indol-3-yl)ethylamino)-2-(5-fluoropyridin-3-yl)-9H-purin-9-yl)propan-1-ol] | 5
Cc1ccc2c(CCNc3nc(-c4cncc(F)c4)nc4c3ncn4C(C)C)c[nH]c2c1 [Example 189] | 26
Oc1ccc(CCNc2nc(-c3cccnc3)nc3c2ncn3C2COC2)cc1 [Example 94] | 970
CC(C)n1cnc2c(NCCc3ccc(O)cc3)nc(-c3cncc4ccccc34)nc21 [Example 145] | 5400
CC(C)n1ncc2c(NCCc3ccc(O)cc3)nc(-c3csc4ccccc34)nc21 [Example 135] | 380
Cc1cccc2[nH]cc(CCNc3nc(-c4cncc(F)c4)nc4c3ncn4C(C)C)c12 [Example 197] | 11
CC(C)n1cnc2c(NCCc3ccc(O)cc3)nc(-c3cnccc3Cl)nc21 [Example 48] | 510
Oc1ccc(CCNc2nc(-c3cncc(F)c3)nc3c2ncn3C2COC2)cc1 [Example 127] | 470
CC(C)n1cnc2c(NCCc3ccc(O)cc3)nc(-c3ccoc3)nc21 [Example 18] | 3900
CCOC(=O)c1cncc(-c2nc(NCCc3ccc(O)cc3)c3ncn(C(C)C)c3n2)c1 [Example 32] | 5600
CC(C)n1cnc2c(NCCNc3ccccn3)nc(-c3cccnc3)nc21 [Example 72] | 6300
COc1cc(CCNc2nc(-c3cccnc3)nc3c2ncn3C(C)C)ccc1O [Example 60] | 3200
CC(CO)n1cnc2c(NCCc3ccc(O)cc3)nc(-c3cccnc3)nc21 (stereo not shown) [Example 113] | 540
CC(C)n1cnc2c(NCCc3ccc(O)cc3)cc(-c3cncc(F)c3)nc21 [Example 177, 4-(2-(5-(5-Fluoropyridin-3-yl)-3-isopropyl-3H-imidazo[4,5-b]pyridin-7-ylamino)ethyl)phenol] | 140
CC(C)n1cnc2c(NCCN3CCNC3=O)nc(-c3csc4ccccc34)nc21 [Example 81] | 2700

SMILES | EC50 [nM]
CCC(C)n1cnc2c(NCCc3c[nH]c4ccccc34)nc(-n3ccnc3C)nc21 (stereo not shown) [Example 178] | 3
Oc1ccc(CCNc2nc(-c3csc4ccccc34)nc3c2ncn3C2COC2)cc1 [Example 151] | 170
CC[C@@H](C)n1cnc2c(NCCc3c[nH]c4ccccc34)nc(-c3cncc(F)c3)nc21 [Example 132R] | 1
Cc1n[nH]c(C)c1CCCNc1nc(-c2csc3ccccc23)nc2c1ncn2C(C)C [Example 88] | 2600
Cc1nccn1-c1nc(NCCc2c[nH]c3ccccc23)c2ncn(C(C)C)c2n1 [Example 184] | 8
CC(C)n1cnc2c(NCCc3ccc(O)cc3)nc(-c3ccnnc3)nc21 [Example 42] | 640
Fc1cncc(-c2nc(NCCc3c[nH]c4ccccc34)c3ncn(C4COC4)c3n2)c1 [Example 186] | 7
CC(C)n1cnc2c(NCCc3cnc4[nH]ccc4c3)nc(-c3cccnc3)nc21 [Example 199] | 1600
CC(C)n1cnc2c(NCCc3c[nH]c4ccc(Cl)cc34)nc(-c3cccnc3)nc21 [Example 148] | 750
CCC(C)n1cnc2c(NCCc3ccc(O)c(C)c3)nc(-c3cncc(C#N)c3)nc21 (stereo not shown) [Example 124] | 3
CC(C)n1cnc2c(NCCc3ccc(O)cc3)nc(-c3cncc(F)c3)nc21 [Example 50] | 34
Cc1nccn1-c1nc(NCCc2ccc(O)cc2)c2ncn(C(C)C)c2n1 [Example 123, 4-(2-(9-Isopropyl-2-(2-methyl-1H-imidazol-1-yl)-9H-purin-6-ylamino)ethyl)phenol] | 66
CC(C)n1cnc2c(NCCc3n[nH]c(N)n3)nc(-c3csc4ccccc34)nc21 [Example 82] | 7900
CC(C)n1cnc2c(NCCc3ccc(O)cc3)nc(-n3cnc4ncccc43)nc21 [Example 160] | 1900
COc1ccc2[nH]cc(CCNc3nc(-c4cncc(F)c4)nc4c3ncn4C(C)C)c2c1 [Example 172] | 420
Oc1ccc(CCNc2nc(-c3csc4ccccc34)nc3c2ncn3[C@H]2CCOC2)cc1 [Example 152] | 350
C=C(C)n1cnc2c(NCCc3c[nH]c4ccccc34)nc(-c3cncc(F)c3)nc21 [Example 173] | 12
Oc1ccc(CCNc2nc(-c3csc4ccccc34)nc3c2ncn3C2CCCOC2)cc1 (stereo not shown) [Example 4] | 1490
Cc1cc(CCNc2nc(-c3cccnc3)nc3c2ncn3C(C)C)ccc1O [Example 150] | 57
Cc1cncc(-c2nc(NCCc3c[nH]c4ccccc34)c3ncn(C4COC4)c3n2)c1 [Example 187] | 34
